“Also recorded” adds a separate entry of the source.
Key:
[1] = test system: freshly isolated human neutrophils (PMNs); experiment: Live time-lapse confocal imaging of probe uptake in activated human neutrophils; format: cell-based
Experimental: (§1) Human peripheral blood leukocytes from healthy volunteers were prepared as previously described^25. Briefly, citrated blood was centrifuged at room temperature for 20 min at 350 g, and platelet-rich plasma was removed. Autologous serum was prepared by recalcification of platelet-rich plasma by addition of CaCl2 to a final concentration of 2 mM. Leukocytes were separated from erythrocytes by dextran sedimentation using 0.6% dextran T500 (Pharmacia, Milton Keynes, UK), and the leukocyte-rich upper layer was then fractionated using isotonic Percoll (Pharmacia). Neutrophils and mononuclear leukocytes (PBMC) were harvested from the 68%181% and 55/68% interfaces, respectively. In some experiments, neutrophils were labelled with DiD (Invitrogen, molecular probes) (2.5 μM) in D-PBS (w/o Ca/Mg) for 20 min at room temperature.
A laser-scanning confocal imaging system (LSM510; Carl Zeiss, Jena, Germany), incorporating an upright Axioskop FS2 microscope (63× objective) was used for image acquisition and processing. Exposure to 488 nm light was limited to 1-6% of the maximum laser power in order to minimize photobleaching and toxicity. In all cases, images were obtained without Kalman averaging and typically with a pixel dwell time of 3.2 μs with a pinhole diameter corresponding to 1 Airy unit. In multiple-labelling experiments pinhole diameters were adjusted to give optical Z-sections of equivalent depths, corresponding to 1 Airy unit for the longest excitation wavelength. All live time-lapse imaging of was performed in IMDM. Coverslips were transferred to a thermostatted environmental stage (POC Mini) maintained at 30° C.^26. Drugs were added by bath addition. In experiments where fluorescein was examined alone, the fluorophore was excited with a dedicated 488 nm line, and emitted light reflected from a NFT545 filter and passed through an LP505 filter.
In multiple labelling experiments involving membrane (DiD, Invitrogen), or dextran-647, and IQR probes, images were obtained simultaneously. DiD or dextran-647 was excited with a dedicated 633 nm line, and emitted light detected with meta detector (650-705 nm), whereas Fluorescein was excited with a dedicated 488 nm line, and emitted light reflected from a NFT545 filter and passed through an LP505 filter.
Neutrophils and mononuclear cells (6×10^5 cells total), or PBMC-derived macrophages, were seeded onto glass coverslips pre-coated with 10 μg/ml fibronectin (Sigma). Cells were allowed to adhere and 10 μM (final concentration) IQR1.2 added to wells prior to transfer to POC mini and placement in environmental chamber. Live imaging commenced at 30 s intervals. Baseline images were acquired for 10-15 min prior to addition of A21387 (10 μM, Sigma) and live time-lapse confocal images acquired for further 20 min. Where sivelestat or dynasore was included, cells were pretreated for 10 minutes prior to imaging.

[2] = test system: PMNs, monocytes and lymphocytes; experiment: Human cell specificity by live confocal imaging; format: cell-based; conditions: PMNs vs monocytes vs lymphocytes
Experimental: as §1, with “temperature. […]” for “temperature.”
In multiple labelling experiments using IQR probes in combination with syto-85 (Invitrogen, 2.5 μM, 30 minutes, 37° C.), images were acquired sequentially. Fluorescein was excited with a dedicated 488 nm line and emitted light reflected from a NFT545 filter and passed through an LP505 filter whereas syto-85 were excited with a dedicated 543 nm line, and emitted light detected with meta detector ([…]). […]

[3] = test system: freshly isolated human neutrophils; experiment: In vitro Cellvizio 488 nm fibreoptic confocal imaging; format: cell-based
Experimental: Human neutrophils were isolated as described above and suspended in PBS with or without activating agents. A fibreoptic confocal system (488 Cellvizio) was used to acquire images in eppendorfs of cells both in the presence of free FAM and IQRs and after washing cells of free FAM and IQR in media. Imaging was performed for 60 s and representative still frames converted to bmp format.

[4] = biological target: T1, recombinant human neutrophil elastase (HNE) (Homo sapiens, UniProt P08246); experiment: Fluorescent microplate reader dequenching with HNE; format: biochemical; conditions: 50 uM
T1 sequence (P08246 30-267): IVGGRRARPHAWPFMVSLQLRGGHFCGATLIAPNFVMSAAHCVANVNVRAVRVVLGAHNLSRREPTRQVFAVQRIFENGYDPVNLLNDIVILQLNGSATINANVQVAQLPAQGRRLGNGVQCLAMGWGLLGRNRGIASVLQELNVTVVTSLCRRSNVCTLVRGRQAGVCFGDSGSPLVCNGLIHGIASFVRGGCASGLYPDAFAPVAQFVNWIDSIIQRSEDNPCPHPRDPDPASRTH
Experimental: IQR4 (0.5 uM) was incubated with of human neutrophil elastase (HNE; 11.3 ug/ml) in reaction buffer (50 mm Hepes buffer, pH 7.4, 0.75 m NaCl, 0.05% Igepal CA-630 (v/v)) with or without of sivelestat (50 uM). The timecourse of fluorescence dequenching was followed for 30 min with a fluorescence microplate reader (excitation 480/20, emission 528/25).

[5] = test system: human neutrophil lysate; experiment: Fluorescent microplate reader dequenching with neutrophil lysate; format: biochemical; conditions: 50 uM
Experimental: For experiments using neutrophil lysate, IQR4 (0.5 uM) is incubated with freeze-thawed neutrophil lysate (10×10^8 cells/ml) in IMDM with or without sivelestat (50 uM). The timecourse of fluorescence dequenching was followed for 30 min with a fluorescence microplate reader (excitation 480/20, emission 528/25).

5(6)-carboxyfluorescein [FAM]
probe uptake after pretreatment with dynamin inhibitor Dynasore ([1]; activated neutrophils, Dynasore pretreatment): prevented | appearance of punctate cell-associated fluorescence ([1]; activation with 10 μM A23187 (calcium ionophore), confocal imaging): rapid appearance of punctate cell-associated fluorescence | cell specificity of probe uptake/activation [2]: Only activated PMN's internalise FAM | resolution of activated cells before wash ([3]; 15 min exposure, probe in medium): not possible to resolve activated cells | visibility of activated cells after washing ([3]; cells spun down, probe removed): activated cells are visible

O=C(N/N=C/c1ccc(O)c(O)c1)c1cc2ccccc2cc1O [Dynasore]
effect on uptake of IQR1.2 by activated neutrophils ([1]; pre-treatment, probe IQR1.2): prevented | effect on uptake of FAM by activated neutrophils ([1]; pretreatment, probe FAM): prevented | effect on cell-associated fluorescence of IQR1 in activated neutrophils ([1]; probe IQR1): inhibited

CC(C)(C)C(=O)Oc1ccc(S(=O)(=O)Nc2ccccc2C(=O)NCC(=O)O)cc1 [sivelestat]
effect on punctate cell-associated fluorescence from probe IQR4 in activated neutrophils ([1]; 50 μM, pre-treatment 10 mins, A23187): blocked; also recorded: inhibits the appearance of this punctate cell-associated fluorescence | effect on HNE-induced dequenching of IQR4 [4]: inhibited; also recorded: blocked | effect on neutrophil lysate-induced dequenching of IQR4 [5]: blocked; also recorded: inhibited

From US10434191B2, “Optical imaging probes” (THE UNIVERSITY COURT OF THE UNIVERSITY OF EDINBURGH, priority 2011, dated 2019)
